The source of these data is ChEMBL document CHEMBL5465560, “Selectivity Literature for EUbOPEN Chemogenomic Library” (2024).

For test [1], the target named is Phosphatidylinositol 3-kinase catalytic subunit type 3 (Homo sapiens, UniProt Q8NEB9). Kind of test: Selectivity interaction (Kinase panel (KiNativ target engagement assay in Jurkat cells)) EUB0001635a PIK3C3. Format: cell-based. The conditions noted are these: Selectivity number of off-targets 0.0, Selectivity number of targets 233.0, Source Knowledge https://www.sciencedirect.com/science/article/pii/S2451945619300674?via%3Dihub, at 1 µM.
Phosphatidylinositol 3-kinase catalytic subunit type 3, sequence (Q8NEB9 whole entry): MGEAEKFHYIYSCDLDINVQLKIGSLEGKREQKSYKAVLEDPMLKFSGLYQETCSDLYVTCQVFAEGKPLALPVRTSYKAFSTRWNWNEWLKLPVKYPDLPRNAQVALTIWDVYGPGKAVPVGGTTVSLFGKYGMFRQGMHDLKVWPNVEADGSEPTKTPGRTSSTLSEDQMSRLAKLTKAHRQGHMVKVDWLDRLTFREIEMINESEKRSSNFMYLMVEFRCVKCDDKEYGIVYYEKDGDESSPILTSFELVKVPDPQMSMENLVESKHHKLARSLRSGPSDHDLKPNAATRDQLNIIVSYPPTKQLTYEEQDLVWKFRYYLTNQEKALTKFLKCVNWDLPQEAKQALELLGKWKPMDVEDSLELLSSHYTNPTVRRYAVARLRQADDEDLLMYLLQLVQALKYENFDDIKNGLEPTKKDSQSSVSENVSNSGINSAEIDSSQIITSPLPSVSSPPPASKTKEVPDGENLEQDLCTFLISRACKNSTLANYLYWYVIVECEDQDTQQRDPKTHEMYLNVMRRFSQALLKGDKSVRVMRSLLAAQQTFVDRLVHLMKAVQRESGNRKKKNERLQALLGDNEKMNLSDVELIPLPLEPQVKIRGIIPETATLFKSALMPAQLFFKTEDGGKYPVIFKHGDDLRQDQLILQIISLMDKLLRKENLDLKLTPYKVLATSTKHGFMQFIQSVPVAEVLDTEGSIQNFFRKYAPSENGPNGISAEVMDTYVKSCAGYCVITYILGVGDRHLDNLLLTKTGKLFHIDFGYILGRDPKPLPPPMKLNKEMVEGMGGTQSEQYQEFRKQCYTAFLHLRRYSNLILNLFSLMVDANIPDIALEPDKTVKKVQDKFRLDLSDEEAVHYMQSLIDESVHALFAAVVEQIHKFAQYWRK

Test [2] has as its target T1, Tyrosine-protein kinase receptor TYRO3 (Homo sapiens) (UniProt Q06418).
T1 sequence (whole entry): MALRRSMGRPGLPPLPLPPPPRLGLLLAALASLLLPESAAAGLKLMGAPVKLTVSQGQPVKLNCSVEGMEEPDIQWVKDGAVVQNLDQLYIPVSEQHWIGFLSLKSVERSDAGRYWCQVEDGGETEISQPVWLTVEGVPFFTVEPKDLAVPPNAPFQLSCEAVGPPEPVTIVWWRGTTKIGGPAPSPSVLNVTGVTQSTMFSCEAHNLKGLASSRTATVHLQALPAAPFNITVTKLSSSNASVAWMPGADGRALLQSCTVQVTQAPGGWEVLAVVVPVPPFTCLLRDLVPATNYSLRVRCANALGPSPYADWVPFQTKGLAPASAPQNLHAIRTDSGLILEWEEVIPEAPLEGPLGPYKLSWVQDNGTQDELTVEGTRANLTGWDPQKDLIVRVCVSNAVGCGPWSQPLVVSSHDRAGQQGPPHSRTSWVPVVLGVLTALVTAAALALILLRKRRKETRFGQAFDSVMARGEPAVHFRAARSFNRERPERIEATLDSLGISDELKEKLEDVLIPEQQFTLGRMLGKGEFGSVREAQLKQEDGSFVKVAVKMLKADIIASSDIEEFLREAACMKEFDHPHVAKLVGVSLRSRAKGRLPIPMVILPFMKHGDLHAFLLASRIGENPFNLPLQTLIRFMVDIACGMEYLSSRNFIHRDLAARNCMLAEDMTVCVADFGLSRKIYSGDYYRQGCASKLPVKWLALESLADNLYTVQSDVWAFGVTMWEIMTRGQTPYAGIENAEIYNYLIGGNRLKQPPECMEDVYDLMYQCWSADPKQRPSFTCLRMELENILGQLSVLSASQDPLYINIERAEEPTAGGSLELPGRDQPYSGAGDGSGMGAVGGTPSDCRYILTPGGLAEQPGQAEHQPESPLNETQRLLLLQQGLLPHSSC
Description: Selectivity interaction (KinomeScan (DiscoverX)) EUB0000607a TYRO3. The conditions noted are these: at 10 µM.

Test [3] in a line: Selectivity interaction (KinomeScan (DiscoverX)) EUB0000607a PKNB. The conditions noted are these: at 10 µM.
The target of test [4] is Vascular endothelial growth factor receptor 3 (Homo sapiens, UniProt P35916). Description: Selectivity interaction (KinomeScan (DiscoverX)) EUB0001619a FLT4. The conditions noted are these: at 1 µM.
Vascular endothelial growth factor receptor 3, sequence (P35916 whole entry): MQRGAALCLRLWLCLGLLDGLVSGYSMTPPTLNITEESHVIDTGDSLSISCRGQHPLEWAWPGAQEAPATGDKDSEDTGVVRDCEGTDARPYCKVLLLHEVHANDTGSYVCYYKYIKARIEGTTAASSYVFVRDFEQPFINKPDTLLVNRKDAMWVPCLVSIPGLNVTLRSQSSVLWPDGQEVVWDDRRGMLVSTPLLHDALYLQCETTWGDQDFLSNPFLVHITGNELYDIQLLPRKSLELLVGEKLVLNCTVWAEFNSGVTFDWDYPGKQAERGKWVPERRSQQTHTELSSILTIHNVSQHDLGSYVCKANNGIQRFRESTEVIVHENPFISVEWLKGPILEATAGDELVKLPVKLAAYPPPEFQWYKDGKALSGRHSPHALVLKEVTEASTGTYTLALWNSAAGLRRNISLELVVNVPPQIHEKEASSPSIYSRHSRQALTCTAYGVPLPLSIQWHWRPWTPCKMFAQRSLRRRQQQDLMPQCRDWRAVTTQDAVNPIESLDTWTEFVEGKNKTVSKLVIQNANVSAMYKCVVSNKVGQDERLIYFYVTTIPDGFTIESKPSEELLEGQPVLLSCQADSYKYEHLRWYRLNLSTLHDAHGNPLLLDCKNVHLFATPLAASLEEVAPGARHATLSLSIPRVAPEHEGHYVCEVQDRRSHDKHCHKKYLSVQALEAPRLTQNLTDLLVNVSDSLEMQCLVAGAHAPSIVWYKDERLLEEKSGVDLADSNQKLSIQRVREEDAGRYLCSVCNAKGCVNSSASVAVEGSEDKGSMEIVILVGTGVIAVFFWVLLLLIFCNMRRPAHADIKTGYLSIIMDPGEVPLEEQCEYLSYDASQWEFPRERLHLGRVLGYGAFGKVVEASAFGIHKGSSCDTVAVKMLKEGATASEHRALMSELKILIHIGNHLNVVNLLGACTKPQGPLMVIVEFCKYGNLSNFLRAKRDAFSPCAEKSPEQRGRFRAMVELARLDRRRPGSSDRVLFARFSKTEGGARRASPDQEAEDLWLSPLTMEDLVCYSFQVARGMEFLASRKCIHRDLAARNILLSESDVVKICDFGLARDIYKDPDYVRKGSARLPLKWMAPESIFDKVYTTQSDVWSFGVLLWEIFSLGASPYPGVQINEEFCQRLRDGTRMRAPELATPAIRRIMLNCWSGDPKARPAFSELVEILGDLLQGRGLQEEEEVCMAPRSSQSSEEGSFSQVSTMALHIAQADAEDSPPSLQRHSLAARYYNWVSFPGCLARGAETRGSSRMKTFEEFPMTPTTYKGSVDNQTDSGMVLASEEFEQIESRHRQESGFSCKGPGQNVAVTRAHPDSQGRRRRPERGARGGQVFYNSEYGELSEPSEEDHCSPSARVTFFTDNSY
The target of test [5] is T2, Serine/threonine-protein kinase ULK2 (Homo sapiens) (UniProt Q8IYT8).
T2 sequence (whole entry): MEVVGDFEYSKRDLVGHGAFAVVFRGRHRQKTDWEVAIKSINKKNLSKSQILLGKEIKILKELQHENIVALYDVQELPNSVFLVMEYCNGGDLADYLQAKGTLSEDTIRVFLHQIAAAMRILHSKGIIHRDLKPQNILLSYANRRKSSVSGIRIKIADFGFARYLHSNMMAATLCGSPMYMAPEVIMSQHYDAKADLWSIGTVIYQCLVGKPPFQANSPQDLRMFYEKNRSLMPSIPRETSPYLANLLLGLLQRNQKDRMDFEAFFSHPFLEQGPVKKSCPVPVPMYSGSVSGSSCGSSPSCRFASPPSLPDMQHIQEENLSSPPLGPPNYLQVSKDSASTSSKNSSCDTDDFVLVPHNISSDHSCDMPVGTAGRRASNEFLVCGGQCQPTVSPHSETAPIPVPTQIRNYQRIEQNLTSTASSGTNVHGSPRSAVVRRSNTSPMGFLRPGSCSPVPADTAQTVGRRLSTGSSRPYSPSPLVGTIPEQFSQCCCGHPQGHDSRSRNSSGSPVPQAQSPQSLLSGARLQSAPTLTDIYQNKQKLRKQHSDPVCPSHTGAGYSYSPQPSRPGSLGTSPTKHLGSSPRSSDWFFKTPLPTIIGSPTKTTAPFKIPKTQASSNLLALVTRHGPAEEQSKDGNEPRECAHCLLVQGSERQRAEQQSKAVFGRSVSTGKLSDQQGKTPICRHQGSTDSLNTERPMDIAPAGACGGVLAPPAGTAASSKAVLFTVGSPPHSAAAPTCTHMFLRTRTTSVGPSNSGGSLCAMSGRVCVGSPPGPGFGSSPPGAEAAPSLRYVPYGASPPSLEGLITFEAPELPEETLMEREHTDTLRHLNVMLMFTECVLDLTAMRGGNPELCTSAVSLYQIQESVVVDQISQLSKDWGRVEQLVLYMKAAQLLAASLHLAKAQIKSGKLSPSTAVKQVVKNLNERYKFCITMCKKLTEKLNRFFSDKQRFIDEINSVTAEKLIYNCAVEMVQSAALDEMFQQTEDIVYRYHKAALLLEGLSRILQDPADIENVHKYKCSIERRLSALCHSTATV
Description: Selectivity interaction (KinomeScan (DiscoverX)) EUB0001049a ULK2. The settings on record: at 1 µM.

Test [6] addresses Fibroblast growth factor receptor 3 (Homo sapiens, UniProt P22607). Description: (§1) Selectivity interaction (ProQinase) EUB0000171b FGFR3.
In test [7] the test system is Fibroblast growth factor receptor 3 (Homo sapiens), P22607 [K650M]. Described as §1.
Fibroblast growth factor receptor 3 (Homo sapiens), P22607 [K650M], sequence (P22607 whole entry K650M): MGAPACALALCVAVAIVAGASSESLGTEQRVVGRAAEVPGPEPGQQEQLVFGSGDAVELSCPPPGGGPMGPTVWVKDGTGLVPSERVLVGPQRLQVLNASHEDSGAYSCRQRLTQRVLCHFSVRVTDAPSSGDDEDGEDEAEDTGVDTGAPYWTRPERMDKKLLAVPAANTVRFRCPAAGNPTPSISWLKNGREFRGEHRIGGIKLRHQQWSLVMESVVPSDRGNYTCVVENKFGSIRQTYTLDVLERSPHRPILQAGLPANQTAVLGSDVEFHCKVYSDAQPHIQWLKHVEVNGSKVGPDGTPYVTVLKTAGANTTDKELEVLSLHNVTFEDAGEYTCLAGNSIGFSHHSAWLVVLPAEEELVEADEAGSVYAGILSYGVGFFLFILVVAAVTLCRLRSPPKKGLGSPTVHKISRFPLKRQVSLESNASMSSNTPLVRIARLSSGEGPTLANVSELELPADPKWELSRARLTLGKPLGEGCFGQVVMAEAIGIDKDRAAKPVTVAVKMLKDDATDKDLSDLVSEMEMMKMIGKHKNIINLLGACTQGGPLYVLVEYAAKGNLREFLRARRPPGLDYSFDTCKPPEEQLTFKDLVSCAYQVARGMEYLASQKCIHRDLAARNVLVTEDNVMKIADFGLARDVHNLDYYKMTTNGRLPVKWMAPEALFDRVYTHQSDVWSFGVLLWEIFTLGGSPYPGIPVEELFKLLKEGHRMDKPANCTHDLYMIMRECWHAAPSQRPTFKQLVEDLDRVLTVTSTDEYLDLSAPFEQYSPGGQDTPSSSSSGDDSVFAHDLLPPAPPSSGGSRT
The test system of test [8] is Fibroblast growth factor receptor 3 (Homo sapiens), P22607 [G697C]. The test is described as §1.
Fibroblast growth factor receptor 3 (Homo sapiens), P22607 [G697C], sequence (P22607 whole entry G697C): as the sequence (P22607 whole entry K650M) above, with M650K, G697C counted along it
The subject of test [9] is Fibroblast growth factor receptor 3 (Homo sapiens), P22607 [K650E]. Described as §1.

Fibroblast growth factor receptor 3 (Homo sapiens), P22607 [K650E], sequence (P22607 whole entry K650E): as the sequence (P22607 whole entry K650M) above, with M650E counted along it
Fibroblast growth factor receptor 3, sequence (P22607 23-806 limits assumed): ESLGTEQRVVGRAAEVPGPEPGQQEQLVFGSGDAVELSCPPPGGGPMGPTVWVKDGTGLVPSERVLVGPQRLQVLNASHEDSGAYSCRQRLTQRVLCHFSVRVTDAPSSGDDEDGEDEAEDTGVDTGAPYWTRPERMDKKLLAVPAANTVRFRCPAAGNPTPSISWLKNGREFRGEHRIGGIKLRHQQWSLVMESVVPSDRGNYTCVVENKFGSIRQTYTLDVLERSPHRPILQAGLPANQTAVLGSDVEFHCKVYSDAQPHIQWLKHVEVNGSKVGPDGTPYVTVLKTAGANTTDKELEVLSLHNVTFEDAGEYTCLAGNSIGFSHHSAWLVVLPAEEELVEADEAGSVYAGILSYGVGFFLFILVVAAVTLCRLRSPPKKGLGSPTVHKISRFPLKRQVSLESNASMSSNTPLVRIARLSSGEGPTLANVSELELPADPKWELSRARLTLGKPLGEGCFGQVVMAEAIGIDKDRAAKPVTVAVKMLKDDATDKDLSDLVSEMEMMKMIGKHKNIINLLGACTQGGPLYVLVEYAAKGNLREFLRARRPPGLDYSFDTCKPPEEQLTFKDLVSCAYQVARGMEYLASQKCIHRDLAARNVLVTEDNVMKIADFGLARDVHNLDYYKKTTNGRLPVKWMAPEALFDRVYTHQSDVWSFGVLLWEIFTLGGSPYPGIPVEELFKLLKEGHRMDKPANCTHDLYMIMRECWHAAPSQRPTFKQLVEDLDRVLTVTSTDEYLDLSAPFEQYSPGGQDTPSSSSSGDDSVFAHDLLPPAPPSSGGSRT

Take `C=CC(=O)Nc1ccc(C(=O)Nc2[nH]nc3c2CN(C(=O)N[C@H](CN(C)C)c2ccccc2)C3(C)C)cc1`: the % of engagement in test [1] is -19.8%.
As for `CNC(=O)Nc1ccc(-c2nc(N3CC4CCC(C3)O4)c3cnn(C4CCC5(CC4)OCCO5)c3n2)cc1`, the values for the % of control in [2] and in [3] were 100% and 94%, respectively.
In test [4], `N#Cc1cccc(-c2c[nH]c3ncnc(N4CCOCC4)c23)c1` returned a % of control of 100%.
Turning to `COc1cc(Nc2nc(C)cc(-c3cnn4nc(OC)ccc34)n2)cc(C(F)(F)F)c1`, in test [5], the % of control came out at 92%.
Turning to `C=CC(=O)Nc1cccc(C(=O)Nc2ccc(Nc3cc(-c4[nH]c(SC)nc4C)ccn3)cc2)c1`, the % of control in [6] (at 1 µM) was 98%; in [6] (at 5 µM) it was 78%; in test [7] (at 1 µM), 97%; in test [7] (at 5 µM) it was 72%; in test [8] (at 1 µM), 103%; in test [8] (at 5 µM), 83%. In addition, the results for the % of control in test [9] (at 1 µM) and in [9] (at 5 µM) were 104% and 79%, respectively.
